Patent publication US11332470B2, “CXCR4 inhibitors and uses thereof” (X4 Pharmaceuticals, Inc., priority 2016, dated 2022)
Read-outs that look alike come from different tables or passages of the source.

How the values were obtained:
[1] = Mouse brain uptake assay (pharmacokinetics and brain penetration after IV administration); assay type: in vivo, Male CD1 Mice; settings: male, 3 mg/kg IV; for Kp / Kp uu: CD1, brain and plasma; for Kp / Kp uu / clearance / half-life: mouse; for Kp uu: read-out: Kp, uu (unbound brain/unbound plasma drug concentration ratio); for clearance / half-life: CD1, plasma; for clearance: read-out: Cl (Clearance) (converted); for half-life: read-out: t½ (half life) (converted); for AUC(0-t): CD1
Procedure: Example 15: Pharmacokinetics and Brain Penetration Experiment to Determine Brain and Plasma Concentrations of Compounds after IV Administration to Male CD1 Mice or Male SD Rats
The study design (9 animals) consisted of administrating the drug (IV: 3 mg/kg (5 mL/kg) via tail vein injection) and collecting samples at terminal bleeding for plasma and brain at 0.083, 0.5 and 1 h. The blood collection was performed as follows: the animal was restrained manually and approximately 150 μL blood/time point was collected into a dipotassium EDTA tube via retro orbital puncture under anesthesia with isoflurane. The blood sample was put on ice and centrifuged to obtain a plasma sample (2000 g, 5 min under 4° C.) within 15 minutes. The brain collection was performed as follows: a mid-line incision was made in the animal's scalp and the skin was retracted. Using small bone cutters and rongeurs, the skull overlying the brain was removed. The brain was removed using a spatula and the brain rinsed with cold saline. The brain was placed in screw-top tubes, and the tubes were stored at −70° C. until analysis. The IV dosing solution was prepared in 50 mM citrate buffer (pH 4.0) at 0.6 mg/mL.
Plasma Sample Preparation:
An aliquot of 30 μL sample was added to […] containing 50 ng/mL IS (Dexamethasone). The mixture was vortexed for 5 min and centrifuged at 14,000 rpm for 5 min. An aliquot of 5 μL supernatant was injected for LC-MS/MS analysis.
Brain Sample Preparation:
An aliquot of 30 μL brain homogenate (brain:PBS=1:3, w/v) sample was added to 150 μL IS in MeCN (Dexamethasone, 50 ng/mL). The mixture was vortexed for 5 min and centrifuged at 14,000 rpm for 5 min. An aliquot of 5 μL supernatant was injected for LC-MS/MS analysis.
The sample analysis was performed on LCMS/MS-003 (API4000, triple quadruple) under the following conditions: positive ion, ESI, MRM detection using dexamethasone as internal standard. HPLC conditions: mobile phase A: H2O (0.025% formic acid (FA) with 1 mM NH4OAc); mobile phase B: MeOH (0.025% FA with 1 mM NH4OAc) on Waters X-Bridge C18 (2.1×50 mm, 2.5 μm) column at 60° C.
A similar experiment was performed with 4 time points taken from 0-24 h.

[2] = target: T1, CXCR4 (Jurkat cells expressing CXCR4) (Homo sapiens, UniProt P61073); test: Chemokine (CXCL12-AF647) binding inhibition assay; settings: CXCL12-AF647 25 ng/mL, read-out: IC50 CXCL-12 binding Jurkat
T1 construct: Jurkat cells expressing CXCR4; endogenous in cells; host or cells: Jurkat
Outline: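 Cells in HBSS, 20 mM HEPES, 0.2% BSA, pH 7.4, preincubated 15 min at room temperature with compound, then 25 ng/mL CXCL12-AF647 for 30 min. After washing and paraformaldehyde fixation, bound ligand read by flow cytometry; percent inhibition calculated from MFI relative to unlabeled and ligand-only controls.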

[3] = 0-1 h, 3 time points, read-out: Kp (brain/plasma drug concentration ratio, AUC last(b)/AUC last(p))
[4] = mouse brain, time zero to 1 hr, 3 time points, read-out: AUClast (b) (area under the brain drug concentration-time curve)
[5] = mouse plasma, time zero to 1 hr, 3 time points, read-out: AUClast (p) (area under the plasma drug concentration-time curve)
[6] = 0-24 h, 4 time points, read-out: Kp (brain/plasma drug concentration ratio)
[7] = mouse brain, 0-24 h, 4 time points, read-out: AUClast (b) (area under the brain drug concentration-time curve)
[8] = mouse plasma, 0-24 h, 4 time points, read-out: AUClast (p) (area under the plasma drug concentration-time curve)

T1 sequence (P61073 whole entry): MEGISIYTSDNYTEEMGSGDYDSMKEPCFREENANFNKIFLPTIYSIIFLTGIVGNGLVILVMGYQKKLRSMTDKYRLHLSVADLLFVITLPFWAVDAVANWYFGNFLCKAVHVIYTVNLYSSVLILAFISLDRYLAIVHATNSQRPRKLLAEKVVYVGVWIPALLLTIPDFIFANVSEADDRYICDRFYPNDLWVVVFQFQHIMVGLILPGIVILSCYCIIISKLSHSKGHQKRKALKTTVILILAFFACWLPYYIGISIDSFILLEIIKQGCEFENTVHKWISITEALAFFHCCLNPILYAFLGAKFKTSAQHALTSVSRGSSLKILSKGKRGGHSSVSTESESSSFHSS

Compound | Kp [1, 3] | Kp uu ([1]; 0-1 h, 3 time points) | clearance ([1]; 0-1 h, 3 time points) [mL/min/kg] | half-life ([1]; 0-1 h, 3 time points) [h] | AUC(0-t) [1, 4] [ng·h/mL] | AUC(0-t) [1, 5] [ng·h/mL] | IC50 [2] [nM] | Kp [1, 6] | Kp uu ([1]; 0-24 h, 4 time points) | clearance ([1]; 0-24 h, 4 time points) [mL/min/kg] | half-life ([1]; 0-24 h, 4 time points) [h] | AUC(0-t) [1, 7] [ng·h/mL] | AUC(0-t) [1, 8] [ng·h/mL]
CN1CCN(c2cccc3[nH]c(CN4CCCC4c4ncccc4Cl)nc23)CC1 (stereo not drawn) [Compound I-26] | 1.86 | 1.11 | 140 | 0.269 | 742 | 400 | 0.01 to 100 |  |  |  |  |  | 
Cc1cccnc1C1CCCN1Cc1cn2c(N3CCN(C)C4(CC4)C3)cccc2n1 (stereo not drawn) [Compound I-29] |  |  |  |  |  |  | 100 to 1000 | 0.53 | 0.07 | 66.8 | 4.29 | 394 | 737
Cc1cccnc1C1CCCN1Cc1nc2cccc(N3CCN(C4CC4)CC3)c2[nH]1 (stereo not drawn) [Compound I-31] |  |  |  |  |  |  | 0.01 to 100 | 37.2 | 5.95 | 235 | 0.275 | 7260 | 195
CN1CCN(c2c(CN3CCCC3c3ccccn3)nc3ccccn23)CC1 (stereo not drawn) [Compound I-41] | 0.77 | 0.22 | 33.2 | 5.33 | 210 | 271 | 0.01 to 100 |  |  |  |  |  | 
CN1CCN(c2c(CN3CCCC3c3ccccn3)nc3ccc(F)cn23)CC1 (stereo not drawn) [Compound I-63] | 1.21 | 0.48 | 25.5 | 3.87 | 518 | 427 | 0.01 to 100 |  |  |  |  |  | 
CN1CCN(c2c(CN3CCCC3c3nccs3)nc3ccccn23)CC1 (stereo not drawn) [Compound I-70] | 1.41 | 1.99 | 25 | 3.64 | 736 | 523 | 0.01 to 100 |  |  |  |  |  | 
